Experimental data taken from paper PMC7596181 (Frontiers in Immunology, 2020).

Key:
human TLR4 [1] = molecular target: T1, human TLR4 (Homo sapiens, UniProt O00206+Q9Y6Y9); assay: SEAP assay, agonist dose response in human TLR4 HEK-Blue reporter cells; type: cell-based; set-up: host or cells: HEK-Blue (HEK293-derived) reporter cells; conditions: for agonist profile / EC50: human TLR4 HEK-Blue reporter cells; for EC50: read-out: EC50 for stimulation
Experimental: (§1) Human and mouse HEK-Blue reporter cells express human or mouse CD14, MD2, and TLR4 and secreted embryonic alkaline phosphatase (SEAP) under control of a promoter with binding sites for NFκB and AP-1 transcription factors (InvivoGen cat. nos. hkb-htlr4 and hkb-mtlr4). Cells were cultured as directed by the supplier, with the exception that Glutamax (ThermoFisher cat. no. 10569010) was used in place of L-glutamine, and TrypLE Express (ThermoFisher cat. no. 12605010) was used to release adherent cells for each passage. BALB/c mouse RAW264.7 and human THP-1 cells (ATCC® cat. nos. TIB-71 and TIB-202) were cultured in DMEM (4.5 g/L D-Glucose with 2 mM L-glutamine, 1 mM sodium pyruvate, 100 U/ml penicillin and 100 μg/ml streptomycin) supplemented with 10% heat-inactivated FBS. THP-1 cells were exposed to phorbol-12-myristate-13-acetate (PMA, InvivoGen cat no. tlrl-pma), 5 ng/ml, for 48 h prior to treatment with TLR4 agonists. Bone marrow-derived dendritic cells (BMDCs) were generated using C57BL/6 mouse femurs following the exact method published by Lutz et al. ([29]) except that 5 rather than 20 ng/ml recombinant GM-CSF was used to differentiate the DC. Human peripheral blood […] (PBMCs) were prepared from venous blood of healthy volunteers that had been collected using sodium citrate as anti-coagulant, 20 ml of which was mixed with 15 ml calcium- and magnesium-free Hank’s Balanced Saline Solution (HBSS) and then laid over 6 ml Histopaque®-1077 (1.077 g/ml, Sigma-Aldrich cat no. 10771) for density gradient centrifugation. The buffy coat layer was collected by pipette, washed once in HBSS, once in serum-free RPMI-1640, and then the PBMCs were resuspended in RPMI-1640 supplemented with 100 U/ml penicillin, 100 µg/ml streptomycin, 1 mM Na-Pyruvate, 2 mM L-glutamine, 50 μM βME and 10% heat-inactivated, male AB human serum for culture.
(§2) SEAP assays were performed to evaluate the extent to which TLR4 signaling was activated in HEK-Blue reporter cells expressing mouse or human receptors (CD14, MD2 and TLR4). Reporter cells were harvested when 70–80% confluent and plated in 96-well, flat-bottom microtiter plates either 1 h, one day or two days (5 × 10^4, 4 × 10^4 or 2 × 10^4 cells/well, respectively) before addition of TLR4 agonists for 18–24 h. Culture supernatants were transferred to U-bottom microtiter plates, centrifuged and transferred again to microtiter plates to ensure reporter cells were not present. The culture supernatants were added to QUANTI-BLUE substrate following instructions provided by the manufacturer (InvivoGen cat. nos. rep-qbl or rep-qbs) and incubated at 37°C in a tissue culture incubator. At successive intervals beginning 10 min after mixing the supernatants and substrate, the plates were placed in an Emax plate reader (Molecular Devices LLC) and optical density was measured at visible light wavelength […] (OD650). The shortest incubations at which dose response curve fits produced maximal R^2 ‘goodness of fit’ values, as determined by GraphPad Prism software, were used for analysis.
(§3) Pharmacological profiles of the TLR4 reagents were generated by performing dose response curves in one of four formats. 1) Agonist potency and efficacy (EC50 and height of dose plateau, respectively) were measured by diluting TLR4 reagents successively in complete culture medium [DMEM or RPMI supplemented with fetal bovine serum (FBS) or RPMI supplemented with human serum, depending on cell-type]. Half-log step dilutions were performed in 96-well, U-bottom microtiter plates using a multichannel pipette to transfer and mix the suspensions, with fresh tips used for each dilution step. One-tenth (20 μl) volumes from wells of the dilution plate were then transferred to wells containing cells that had been plated in nine-tenth volumes (180 μl) of culture medium. […]

human TLR4 [2] = molecular target: T1, human TLR4; assay: Inhibition curves (IC50 format): antagonist diluted in a fixed concentration of reference agonist, human TLR4 HEK-Blue SEAP; type: cell-based; set-up: host or cells: HEK-Blue (HEK293-derived) reporter cells; conditions: for inhibition of PHAD stimulation: fixed PHAD 1 μM, 22 h
Experimental: as §2
(§4) Pharmacological profiles of the TLR4 reagents were generated by performing dose response curves in one of four formats. 1) Agonist potency and efficacy (EC50 and height of dose plateau, respectively) were measured by diluting TLR4 reagents successively in complete culture medium [DMEM or RPMI supplemented with fetal bovine serum (FBS) or RPMI supplemented with human serum, depending on cell-type]. Half-log step dilutions were performed in 96-well, U-bottom microtiter plates using a multichannel pipette to transfer and mix the suspensions, with fresh tips used for each dilution step. One-tenth (20 μl) volumes from wells of the dilution plate were then transferred to wells containing cells that had been plated in nine-tenth volumes (180 μl) of culture medium. 2) Mixed agonist–antagonist potency and efficacy were measured by mixing a TLR4 agonist with a candidate antagonist at a fixed ratio and then performing half-log step dilutions before treating HEK reporter cells. Analysis of values obtained from SEAP assays of culture supernatants was then performed as described for preparations containing agonist alone, above. 3) Competitive vs allosteric or non-competitive antagonist type was evaluated by diluting a reference agonist within a fixed concentration of a candidate inhibitor in half-log steps, treating HEK reporter cells, performing SEAP assays and then analyzing the data as described for agonist assays, above. Competitive antagonists are characterized by values that reach the same dose plateau as for a reference, full agonist, while shifting potency to higher EC50 values. […] 4) Inhibitory potency (IC50) was measured by diluting antagonists within a fixed concentration of a reference agonist, treating HEK reporter cells and performing SEAP assays as described.

mouse TLR4 [3] = molecular target: T2, mouse TLR4 (Mus musculus, UniProt Q9JHF9+Q9QUK6); assay: SEAP assay, agonist dose response in mouse TLR4 HEK-Blue reporter cells; type: cell-based; set-up: host or cells: HEK-Blue (HEK293-derived) reporter cells; conditions: for agonist profile: mouse TLR4 HEK-Blue reporter cells
T2 sequence (Q9QUK6 26-835): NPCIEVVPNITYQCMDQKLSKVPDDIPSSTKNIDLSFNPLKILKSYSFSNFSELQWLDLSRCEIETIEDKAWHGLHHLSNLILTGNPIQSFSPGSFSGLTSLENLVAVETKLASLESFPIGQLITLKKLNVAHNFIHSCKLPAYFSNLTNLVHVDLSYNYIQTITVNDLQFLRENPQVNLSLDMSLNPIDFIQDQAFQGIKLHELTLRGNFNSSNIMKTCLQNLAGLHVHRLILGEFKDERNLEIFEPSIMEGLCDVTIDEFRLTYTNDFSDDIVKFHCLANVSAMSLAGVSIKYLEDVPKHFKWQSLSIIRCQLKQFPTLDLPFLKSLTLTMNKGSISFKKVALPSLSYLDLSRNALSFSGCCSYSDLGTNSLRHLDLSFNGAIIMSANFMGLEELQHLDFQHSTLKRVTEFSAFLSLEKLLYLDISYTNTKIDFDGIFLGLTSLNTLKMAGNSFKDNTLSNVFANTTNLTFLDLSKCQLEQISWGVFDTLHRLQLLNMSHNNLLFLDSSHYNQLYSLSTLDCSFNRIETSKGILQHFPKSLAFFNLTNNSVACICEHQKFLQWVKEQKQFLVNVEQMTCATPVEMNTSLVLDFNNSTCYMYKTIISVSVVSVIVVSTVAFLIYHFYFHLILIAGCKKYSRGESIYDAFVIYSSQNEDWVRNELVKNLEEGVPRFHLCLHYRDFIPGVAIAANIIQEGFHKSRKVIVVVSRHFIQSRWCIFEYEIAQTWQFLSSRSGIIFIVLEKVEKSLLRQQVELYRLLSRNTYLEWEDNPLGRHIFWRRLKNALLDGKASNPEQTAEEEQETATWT
T2 sequence (Q9JHF9 19-160): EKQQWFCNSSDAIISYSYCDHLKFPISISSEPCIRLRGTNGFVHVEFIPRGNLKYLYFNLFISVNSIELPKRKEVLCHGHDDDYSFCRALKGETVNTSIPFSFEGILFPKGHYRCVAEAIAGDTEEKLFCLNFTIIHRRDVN
Experimental: as §1, §2, §3

mouse TLR4 [4] = molecular target: T2, mouse TLR4; set-up: method as in PMID 1918061; conditions: cited from earlier work
human TLR4 [5] = molecular target: T1, human TLR4; set-up: method as in PMID 1918061; conditions: cited from earlier work
human TLR4 [6] = molecular target: T1, human TLR4; assay: Mixed agonist-antagonist dose curves at fixed ratio, human TLR4 HEK-Blue SEAP; type: cell-based; set-up: host or cells: HEK-Blue (HEK293-derived) reporter cells
Experimental: as §2, §4

human TLR4 [7] = molecular target: T1, human TLR4; assay: Competitive vs non-competitive antagonist type: agonist diluted in a fixed concentration of inhibitor, human TLR4 HEK-Blue SEAP; type: cell-based; set-up: host or cells: HEK-Blue (HEK293-derived) reporter cells; conditions: fixed ML3 3 μM, ML4A 3 μM or Lipid IVa 0.1 μM; agonist PHAD or 3D-6A-PHAD diluted from 10 μM
Experimental: as §2
Pharmacological profiles of the TLR4 reagents were generated by performing dose response curves in one of four formats. 1) Agonist potency and efficacy (EC50 and height of dose plateau, respectively) were measured by diluting TLR4 reagents successively in complete culture medium [DMEM or RPMI supplemented with fetal bovine serum (FBS) or RPMI supplemented with human serum, depending on cell-type]. […] 2) Mixed agonist–antagonist potency and efficacy were measured by mixing a TLR4 agonist with a candidate antagonist at a fixed ratio and then performing half-log step dilutions before treating HEK reporter cells. […] 4) Inhibitory potency (IC50) was measured by diluting antagonists within a fixed concentration of a reference agonist, treating HEK reporter cells and performing SEAP assays as described.

T1 sequence (O00206 24-839): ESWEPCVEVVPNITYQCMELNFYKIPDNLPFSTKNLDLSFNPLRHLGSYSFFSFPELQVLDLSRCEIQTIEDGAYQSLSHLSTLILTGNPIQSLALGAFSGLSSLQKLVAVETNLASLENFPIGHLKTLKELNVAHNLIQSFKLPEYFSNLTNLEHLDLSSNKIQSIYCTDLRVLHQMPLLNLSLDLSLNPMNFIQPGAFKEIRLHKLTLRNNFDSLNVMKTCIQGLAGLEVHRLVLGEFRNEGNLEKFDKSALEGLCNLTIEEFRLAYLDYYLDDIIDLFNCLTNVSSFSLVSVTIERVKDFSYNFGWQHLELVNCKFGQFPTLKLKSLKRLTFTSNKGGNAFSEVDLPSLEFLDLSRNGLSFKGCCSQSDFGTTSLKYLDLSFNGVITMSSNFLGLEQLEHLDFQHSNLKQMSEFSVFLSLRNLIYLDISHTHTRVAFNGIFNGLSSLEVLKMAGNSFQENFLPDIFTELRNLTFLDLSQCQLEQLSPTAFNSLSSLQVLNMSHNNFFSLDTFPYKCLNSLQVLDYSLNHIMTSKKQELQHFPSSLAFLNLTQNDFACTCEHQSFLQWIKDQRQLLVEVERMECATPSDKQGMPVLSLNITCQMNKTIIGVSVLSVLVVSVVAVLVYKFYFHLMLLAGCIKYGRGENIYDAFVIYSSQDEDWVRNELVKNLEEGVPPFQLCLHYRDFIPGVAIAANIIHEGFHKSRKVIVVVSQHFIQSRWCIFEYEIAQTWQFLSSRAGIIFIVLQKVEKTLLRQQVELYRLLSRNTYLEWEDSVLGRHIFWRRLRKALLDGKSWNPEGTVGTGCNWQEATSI
T1 sequence (Q9Y6Y9 17-160 limits assumed): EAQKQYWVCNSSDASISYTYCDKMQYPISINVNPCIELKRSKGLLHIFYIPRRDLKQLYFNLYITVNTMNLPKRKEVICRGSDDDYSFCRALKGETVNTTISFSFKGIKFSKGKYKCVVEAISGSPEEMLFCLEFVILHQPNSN

Compound | agonist profile (human TLR4 [1]) | inhibition of PHAD stimulation (human TLR4 [2]) | agonist profile (mouse TLR4 [3]) | EC50 (human TLR4 [1]) | also measured
CCCCCCCCCCCCCCCC(=O)OC(CCCCCCCCCCC)CC(=O)NC1C(O)OC(COC2OC(CO)C(OP(=O)(O)O)C(OC(=O)CC(CCCCCCCCCCC)OC(=O)CCCCCCCCCCCCC)C2NC(=O)CC(CCCCCCCCCCC)OC(=O)CCCCCCCCCCC)C(O)C1O (stereo not shown) [ML6] | weaker agonists of human TLR4 than of mouse TLR4 | only ML3 and ML4A showed inhibitory potential | – | – | –
CCCCCCCCCCCCCC(=O)O[C@H](CCCCCCCCCCC)CC(=O)O[C@@H]1[C@@H](NC(=O)C[C@@H](CCCCCCCCCCC)OC(=O)CCCCCCCCCCC)[C@H](OC[C@H]2O[C@H](OP(=O)(O)O)[C@H](NC(=O)C[C@H](O)CCCCCCCCCCC)[C@@H](OC(=O)C[C@H](O)CCCCCCCCCCC)[C@@H]2O)O[C@H](CO)[C@H]1OP(=O)(O)O [Lipid A, reference compound] | most potent of the agonists tested | – | most potent of the agonists tested | – | ED50 (95% CI) (human TLR4 [1]; human TLR4 reporter cells, stimulatory curve fit, Figure 3C): 1.0 (0.8-1.1) ng/mL; ED50 (95% CI) (mouse TLR4 [3]; mouse Tlr4 reporter cells, stimulatory curve fit, Figure 3C): 0.7 (0.5-0.9) ng/mL
CCCCCCCCCCC[C@@H](O)CC(=O)N[C@H]1[C@H](OC[C@H]2O[C@H](OP(=O)(O)O)[C@H](NC(=O)C[C@H](O)CCCCCCCCCCC)[C@@H](OC(=O)C[C@H](O)CCCCCCCCCCC)[C@@H]2O)O[C@H](CO)[C@@H](OP(=O)(O)O)[C@@H]1OC(=O)C[C@H](O)CCCCCCCCCCC [Lipid IVa, reference compound] | – | – | – | – | activity on mouse TLR4 (mouse TLR4 [4]): agonist of mouse TLR4; activity on human TLR4 (human TLR4 [5]): competitive antagonist of human TLR4; effect on agonist dose curve in fixed-ratio mixture (human TLR4 [6]; mixed with PHAD at 1:60 or 1:20 antagonist:agonist): clearly flatted; effect on agonist dose curve in fixed-ratio mixture (human TLR4 [6]; mixed with PHAD at 1:180 antagonist:agonist): trending to a flattened curve; antagonist type (human TLR4 [7]): competitive antagonist curve; inhibition of 3D-6A-PHAD stimulation (human TLR4 [2]; fixed 3D-6A-PHAD 300 nM): functioned as inhibitors; IC50 (human TLR4 [2]; fixed PHAD 30 nM, 95% CI given): 0.00019 µM
CCCCCCCCCCCCCC(=O)OC(CCCCCCCCCCC)CC(=O)NC1C(O)OC(COC2OC(CO)C(OP(=O)(O)O)C(OC(=O)CC(CCCCCCCCCCC)OC(=O)CCCCCCCCCCCCC)C2NC(=O)CC(CCCCCCCCCCC)OC(=O)CCCCCCCCCCCCC)C(O)C1O (stereo not shown) [3D-6A-PHAD, reference compound] | – | – | – | 0.3 µM | –
CCCCCCCCCCCCCC(=O)O[C@H](CCCCCCCCCCC)CC(=O)N[C@H]1[C@H](OC[C@H]2OC(O)[C@H](NC(=O)C[C@H](O)CCCCCCCCCCC)[C@@H](OC(=O)C[C@H](O)CCCCCCCCCCC)[C@@H]2O)O[C@H](CO)[C@@H](OP(=O)(O)O)[C@@H]1OC(=O)C[C@@H](CCCCCCCCCCC)OC(=O)CCCCCCCCCCCCC (stereo partly shown) [PHAD, phosphorylated hexa-acyl disaccharide, reference compound] | weak yet full agonist of both mouse and human TLR4 | – | weak yet full agonist of both mouse and human TLR4 | 0.03 µM | –
CCCCCCCCCCCCCC(=O)OC(CCCCCCCCCCC)CC(=O)OC1C(NC(=O)CC(CCCCCCCCCCC)OC(=O)CCCCCCCCCCC)C(OCC2OC(O)C(NC(=O)CC(O)CCCCCCCCCCC)C(O)C2O)OC(CO)C1OP(=O)(O)O (stereo not shown) [ML5A] | weaker agonists of human TLR4 than of mouse TLR4 | only ML3 and ML4A showed inhibitory potential | – | – | –
